Measured values as given in patent US8617872B2, “Compositions for culturing spirochetes” (priority 2000, dated 2013).

What was measured:
Type in all cases: cell-based
Leptospira [1] = assay: Susceptibility testing of Leptospira isolated from a patient with symptoms of rheumatoid arthritis; details: for Antibiotic Susceptibility Results, SERUM: Leptospira culture from serum of rheumatoid arthritis patient; for Antibiotic Susceptibility Results, URINE: Leptospira culture from urine of rheumatoid arthritis patient
From the text: (§1) This example describes the preparation of a pellet used for antimicrobial susceptibility testing of a culture sample. The procedure begins with a culture (e.g., prepared in the manner described in Example 2), where serum from a patient is inoculated in GSI-1 media and allowed to grow. In order to form pellet, an aliquot of this culture sample is placed in a microcentrifuge tube along with 10% SDS solution, and centrifuged at 14,000 g to disrupt the spirochetes and maximize the number of available eptiopic sites. The disrupted spirochetes were then cultured in an alternative growth medium made up of one part GSI-1 medium, one part 6.5% lactalbumin hydrolysate, one part 2% brain heart infusion, one part 10% pluronic fluid, and one part of the isolated (disrupted) spirochetes. This inoculated alternative growth medium was then allowed to incubate in the closed micro centrifuge tube until a distinctive pellet was observed (typically 7-14 days).
(§2) Following the observation of pellet formation, the tube was vortexed and incubated at 35° C. until a MacFarlane standard of between 8 to 12% turbidity was achieved. MICROSCAN antibiotic susceptibility microtiter plates were then inoculated with (e.g., 110 μl of) inoculum and allowed to incubate at 35° C. for 16-20 hours. The microtiter plates were then scanned for growth and respective sensitivity reaction (both the control well and the growth well).
This Example describes the diagnosis and treatment of a human patient with symptoms of rheumatoid arthritis. In particular, serum and urine samples from this patient were initially cultured on GSI-1 (e.g., as described in Example 2), and screened for the presence of spirochetes (e.g., as described in Example 3). […] These cultures were then used to produce pellets for antimicrobial susceptibility testing (e.g., as described in Example 6). The antimicrobial susceptibility tests were then carried out on each sample (e.g., as described in Example 7) with the antimicrobials listed below in Table 5.

Leptospira [2] = assay: Susceptibility testing of Leptospira isolated from a patient with symptoms of multiple sclerosis; details: for Antibiotic Susceptibility Results, SERUM: Leptospira culture from serum of multiple sclerosis patient; for Antibiotic Susceptibility Results, URINE: Leptospira culture from urine of multiple sclerosis patient
Protocol: This example describes the preparation of a pellet used for antimicrobial susceptibility testing of a culture sample. […] In order to form pellet, an aliquot of this culture sample is placed in a microcentrifuge tube along with 10% SDS solution, and centrifuged at 14,000 g to disrupt the spirochetes and maximize the number of available eptiopic sites. […] This inoculated alternative growth medium was then allowed to incubate in the closed micro centrifuge tube until a distinctive pellet was observed (typically 7-14 days).
MICROSCAN antibiotic susceptibility microtiter plates were then inoculated with (e.g., 110 μl of) inoculum and allowed to incubate at 35° C. for 16-20 hours. The microtiter plates were then scanned for growth and respective sensitivity reaction (both the control well and the growth well).

Tatumella = assay: Antibiotic susceptibility test (MICROSCAN or disc diffusion), control organism Tatumella; details: total isolates 2
From the text: as §1
as §2, with “well). Table 2 below lists the various antimicrobials tested with this sample and whether growth of the organism was inhibited (susceptible) or whether the growth of the organism was not inhibited (resistant).” for “well).”
(§3) This Example describes the results for susceptibility tests that were performed on a large number of patient samples positive for either Borrelia or Leptospira. […] The results presented in Table 3 reveal the varied response of different types of spirochetes to different antibiotics.

Leptospira [3] = assay: Antibiotic susceptibility test (MICROSCAN or disc diffusion) of patient samples positive for Leptospira; details: total isolates 276
From the text: as §1
as §2, with “well). Table 2 below lists the various antimicrobials tested with this sample and whether growth of the organism was inhibited (susceptible) or whether the growth of the organism was not inhibited (resistant).” for “well).”
as §3

E. coli = assay: Antibiotic susceptibility test (MICROSCAN or disc diffusion), control organism E. coli; details: total isolates 1
Pseudomonas = assay: Antibiotic susceptibility test (MICROSCAN or disc diffusion), control organism Pseudomonas; details: total isolates 1
Borrelia = assay: Antibiotic susceptibility test (MICROSCAN or disc diffusion) of patient samples positive for Borrelia; details: total isolates 519
From the text: as §1
as §2, with “well). Table 2 below lists the various antimicrobials tested with this sample and whether growth of the organism was inhibited (susceptible) or whether the growth of the organism was not inhibited (resistant).” for “well).”
as §3

A. lwoffii = assay: Antibiotic susceptibility test (MICROSCAN or disc diffusion), control organism A. lwoffii; details: total isolates 1
Y. entero gp. = assay: Antibiotic susceptibility test (MICROSCAN or disc diffusion), control organism Y. entero gp.; details: total isolates 1
Treponema isolate = assay: Antimicrobial susceptibility test (MICROSCAN plates) of a patient's Treponema isolate; details: Treponema infected patient's isolate; MICROSCAN plates, 35° C., 16-20 hours
Protocol: For susceptibility testing, the organisms harvested could be assayed using any suitable susceptibility assay (See, Example 7). In some embodiments of the present invention, MICROSCAN antibiotic susceptibility plates were inoculated and incubated. Following incubations, plates were scanned for growth and respective sensitivity reaction. […] For the results to be considered reliable, the no growth of organisms was accepted in the negative control well, while the positive control well had to have sufficient growth to be read. In some embodiments of the present invention, to confirm the presence or absence of growing spirochetes in the growth well, aliquots from the growth well were reinoculated with fresh growth media and after an incubation time (e.g., 7-10 days) the presence of the organisms was confirmed (e.g., by phase contrast microscopy or direct fluorescent antibody staining).
as §1
This example describes an antimicrobial susceptibility test performed for a human patient. The patient had previously been testing using GSI-1 medium (e.g., as described in Example 2) for the presence of any spirochetes. […] This culture sample was then transferred to a microcentrifuge tube, and a pellet for antimicrobial susceptibility testing was prepared as described in Example 6.
as §2, with “well). Table 2 below lists the various antimicrobials tested with this sample and whether growth of the organism was inhibited (susceptible) or whether the growth of the organism was not inhibited (resistant).” for “well).”

## Trimethoprim Sulfate
Leptospira [1]
  Antibiotic Susceptibility Results, SERUM: Susceptible
  Antibiotic Susceptibility Results, URINE: Susceptible

## CC[C@H]1OC(=O)[C@H](C)[C@@H](O[C@H]2C[C@@](C)(OC)[C@@H](O)[C@H](C)O2)[C@H](C)[C@@H](O[C@@H]2O[C@H](C)C[C@H](N(C)C)[C@H]2O)[C@](C)(O)C[C@@H](C)C(=O)[C@H](C)[C@@H](O)[C@]1(C)O [Erythromycin]
Leptospira [2]
  Antibiotic Susceptibility Results, SERUM: Resistant
  Antibiotic Susceptibility Results, URINE: Resistant
Leptospira [1]
  Antibiotic Susceptibility Results, SERUM: Resistant
  Antibiotic Susceptibility Results, URINE: Resistant

## C[C@@H](O)[C@H]1C(=O)N2C(C(=O)O)=C(SCCN=CN)C[C@H]12 [Imipenem]
Leptospira [2]
  Antibiotic Susceptibility Results, SERUM: Resistant
  Antibiotic Susceptibility Results, URINE: Resistant
Tatumella
  Antibiotic Susceptibility Test Results, Tatumella: 100%
Leptospira [3]
  Antibiotic Susceptibility Test Results, Leptospira: 77%
E. coli
  Antibiotic Susceptibility Test Results, E. coli: 100%
Pseudomonas
  Antibiotic Susceptibility Test Results, Pseudomonas: 100%
Borrelia
  Antibiotic Susceptibility Test Results, Borrelia: 84%
A. lwoffii
  Antibiotic Susceptibility Test Results, A. lwoffii: 100%
Y. entero gp.
  Antibiotic Susceptibility Test Results, Y. entero gp.: 100%

## CC[C@H]1OC(=O)[C@H](C)[C@@H](O[C@H]2C[C@@](C)(OC)[C@@H](O)[C@H](C)O2)[C@H](C)[C@@H](O[C@@H]2O[C@H](C)C[C@H](N(C)C)[C@H]2O)[C@](C)(OC)C[C@@H](C)C(=O)[C@H](C)[C@@H](O)[C@]1(C)O [Clarithromycin]
Leptospira [2]
  Antibiotic Susceptibility Results, SERUM: Resistant
  Antibiotic Susceptibility Results, URINE: Resistant
Leptospira [1]
  Antibiotic Susceptibility Results, SERUM: Resistant
  Antibiotic Susceptibility Results, URINE: Resistant

## CO[C@H]1/C=C/O[C@@]2(C)Oc3c(C)c(O)c4c(O)c(c(/C=N/N5CCN(C)CC5)c(O)c4c3C2=O)NC(=O)/C(C)=C\C=C\[C@H](C)[C@H](O)[C@@H](C)[C@@H](O)[C@@H](C)[C@H](OC(C)=O)[C@@H]1C [Rifampin]
Leptospira [2]
  Antibiotic Susceptibility Results, SERUM: Resistant
  Antibiotic Susceptibility Results, URINE: Resistant
Leptospira [1]
  Antibiotic Susceptibility Results, SERUM: Resistant
  Antibiotic Susceptibility Results, URINE: Resistant

## CC1(C)S[C@@H]2[C@H](NC(=O)[C@H](C(=O)O)c3ccsc3)C(=O)N2[C@H]1C(=O)O [Ticarcillin]
Treponema isolate
  RESULT (antibiotic susceptibility): Susceptible

## CC1(C)S[C@@H]2[C@H](NC(=O)[C@H](NC(=O)N3CCN(S(C)(=O)=O)C3=O)c3ccccc3)C(=O)N2[C@H]1C(=O)O [Mezlocillin]
Treponema isolate
  RESULT (antibiotic susceptibility): Susceptible

## CCC[C@@H]1C[C@@H](C(=O)N[C@@H]([C@H]2O[C@H](SC)[C@H](O)[C@@H](O)[C@H]2O)[C@H](C)Cl)N(C)C1 [Clindamycin]
Leptospira [2]
  Antibiotic Susceptibility Results, SERUM: Resistant
  Antibiotic Susceptibility Results, URINE: Resistant
Leptospira [1]
  Antibiotic Susceptibility Results, SERUM: Resistant
  Antibiotic Susceptibility Results, URINE: Resistant

## CCN[C@@H]1C[C@H](N)[C@@H](O[C@H]2OC(CN)=CC[C@H]2N)[C@H](O)[C@H]1O[C@H]1OC[C@](C)(O)[C@H](NC)[C@H]1O [Netilmicin]
Treponema isolate
  RESULT (antibiotic susceptibility): Resistant

## CC(=O)OCC1=C(C(=O)O)N2C(=O)[C@@H](NC(=O)Cc3cccs3)[C@H]2SC1 [Cephalothin]
Treponema isolate
  RESULT (antibiotic susceptibility): Susceptible

## CN(C)[C@@H]1C(O)=C(C(N)=O)C(=O)[C@@]2(O)C(O)=C3C(=O)c4c(O)cccc4[C@@](C)(O)[C@H]3C[C@@H]12 [Tetracycline]
Leptospira [2]
  Antibiotic Susceptibility Results, SERUM: Resistant
  Antibiotic Susceptibility Results, URINE: Resistant
Treponema isolate
  RESULT (antibiotic susceptibility): Resistant
Leptospira [1]
  Antibiotic Susceptibility Results, SERUM: Resistant
  Antibiotic Susceptibility Results, URINE: Resistant

## CCn1cc(C(=O)O)c(=O)c2cc(F)c(N3CCNCC3)cc21 [Norfloxacin]
Leptospira [2]
  Antibiotic Susceptibility Results, URINE: Susceptible
Leptospira [1]
  Antibiotic Susceptibility Results, URINE: Susceptible

## CC1(C)S[C@@H]2[C@H](NC(=O)[C@H](N)c3ccccc3)C(=O)N2[C@H]1C(=O)O [Ampicillin]
Leptospira [2]
  Antibiotic Susceptibility Results, SERUM: Resistant
  Antibiotic Susceptibility Results, URINE: Resistant
Treponema isolate
  RESULT (antibiotic susceptibility): Susceptible
Tatumella
  Antibiotic Susceptibility Test Results, Tatumella: 100%
Leptospira [3]
  Antibiotic Susceptibility Test Results, Leptospira: 54%
E. coli
  Antibiotic Susceptibility Test Results, E. coli: 100%
Leptospira [1]
  Antibiotic Susceptibility Results, SERUM: Resistant
  Antibiotic Susceptibility Results, URINE: Resistant
Borrelia
  Antibiotic Susceptibility Test Results, Borrelia: 61%
Y. entero gp.
  Antibiotic Susceptibility Test Results, Y. entero gp.: 100%

## Penicillin
Leptospira [1]
  Antibiotic Susceptibility Results, SERUM: Resistant
  Antibiotic Susceptibility Results, URINE: Resistant

## CO/N=C(\C(=O)N[C@@H]1C(=O)N2C(C(=O)O)=C(COC(N)=O)CS[C@H]12)c1ccco1 [Cefuroxime]
Leptospira [2]
  Antibiotic Susceptibility Results, SERUM: Resistant
  Antibiotic Susceptibility Results, URINE: Resistant
Tatumella
  Antibiotic Susceptibility Test Results, Tatumella: 0%
Leptospira [3]
  Antibiotic Susceptibility Test Results, Leptospira: 59%
E. coli
  Antibiotic Susceptibility Test Results, E. coli: 100%
Leptospira [1]
  Antibiotic Susceptibility Results, SERUM: Resistant
  Antibiotic Susceptibility Results, URINE: Resistant
Borrelia
  Antibiotic Susceptibility Test Results, Borrelia: 59%
Y. entero gp.
  Antibiotic Susceptibility Test Results, Y. entero gp.: 100%

## Ampicillin/Sulbactam
Treponema isolate
  RESULT (antibiotic susceptibility): Susceptible

## Piperacillin/Tazobactam
Leptospira [2]
  Antibiotic Susceptibility Results, SERUM: Intermediate
  Antibiotic Susceptibility Results, URINE: Intermediate
Tatumella
  Antibiotic Susceptibility Test Results, Tatumella: 100%
Leptospira [3]
  Antibiotic Susceptibility Test Results, Leptospira: 86%
E. coli
  Antibiotic Susceptibility Test Results, E. coli: 100%
Pseudomonas
  Antibiotic Susceptibility Test Results, Pseudomonas: 100%
Leptospira [1]
  Antibiotic Susceptibility Results, SERUM: Intermediate
  Antibiotic Susceptibility Results, URINE: Intermediate
Borrelia
  Antibiotic Susceptibility Test Results, Borrelia: 88%
Y. entero gp.
  Antibiotic Susceptibility Test Results, Y. entero gp.: 100%

## CO/N=C(\C(=O)N[C@@H]1C(=O)N2C(C(=O)[O-])=C(C[N+]3(C)CCCC3)CS[C@H]12)c1csc(N)n1 [Cefepime]
Tatumella
  Antibiotic Susceptibility Test Results, Tatumella: 0%
Leptospira [3]
  Antibiotic Susceptibility Test Results, Leptospira: 54%
E. coli
  Antibiotic Susceptibility Test Results, E. coli: 100%
Pseudomonas
  Antibiotic Susceptibility Test Results, Pseudomonas: 100%
Borrelia
  Antibiotic Susceptibility Test Results, Borrelia: 49%
A. lwoffii
  Antibiotic Susceptibility Test Results, A. lwoffii: 100%
Y. entero gp.
  Antibiotic Susceptibility Test Results, Y. entero gp.: 100%

## Cc1nnc(SCC2=C(C(=O)O)N3C(=O)[C@@H](NC(=O)Cn4cnnn4)[C@H]3SC2)s1 [Cefazolin]
Treponema isolate
  RESULT (antibiotic susceptibility): Resistant

## Trimethoprim/Sulfamethoxazole
Leptospira [2]
  Antibiotic Susceptibility Results, SERUM: Susceptible
  Antibiotic Susceptibility Results, URINE: Susceptible
Treponema isolate
  RESULT (antibiotic susceptibility): Resistant

## CC[C@H]1OC(=O)[C@H](C)[C@@H](O[C@H]2C[C@@](C)(OC)[C@@H](O)[C@H](C)O2)[C@H](C)[C@@H](O[C@@H]2O[C@H](C)C[C@H](N(C)C)[C@H]2O)[C@](C)(O)C[C@@H](C)CN(C)[C@H](C)[C@@H](O)[C@]1(C)O [Azithromycin]
Leptospira [2]
  Antibiotic Susceptibility Results, SERUM: Resistant
  Antibiotic Susceptibility Results, URINE: Resistant
Leptospira [1]
  Antibiotic Susceptibility Results, SERUM: Resistant
  Antibiotic Susceptibility Results, URINE: Resistant
